Patent publication US8822534B2, “Substituted aminopropionic derivatives as neprilysin inhibitors” (priority 2009, dated 2014)

Target: recombinant human neutral endopeptidase (NEP, EC 3.4.24.11) (Homo sapiens (Human), UniProt P08473)
Experiment: in vitro inhibition of recombinant human neutral endopeptidase (fluorescence lifetime assay)
Assay type: biochemical
Excerpt: The activity of a compound according to the present invention can be assessed by the following in vitro & in vivo methods and/or by the following in vitro & in vivo methods well-described in the art. See A fluorescence lifetime-based assay for protease inhibitor profiling on human kallikrein 7 Doering K, Meder G, Hinnenberger M, Woelcke J, Mayr L M, Hassiepen U Biomol Screen.
In particular, the in vitro inhibition of recombinant human neutral endopeptidase (NEP, EC 3.4.24.11) can be determined as follows: […]

Chain of recombinant human neutral endopeptidase (NEP, EC 3.4.24.11) (P08473 whole entry): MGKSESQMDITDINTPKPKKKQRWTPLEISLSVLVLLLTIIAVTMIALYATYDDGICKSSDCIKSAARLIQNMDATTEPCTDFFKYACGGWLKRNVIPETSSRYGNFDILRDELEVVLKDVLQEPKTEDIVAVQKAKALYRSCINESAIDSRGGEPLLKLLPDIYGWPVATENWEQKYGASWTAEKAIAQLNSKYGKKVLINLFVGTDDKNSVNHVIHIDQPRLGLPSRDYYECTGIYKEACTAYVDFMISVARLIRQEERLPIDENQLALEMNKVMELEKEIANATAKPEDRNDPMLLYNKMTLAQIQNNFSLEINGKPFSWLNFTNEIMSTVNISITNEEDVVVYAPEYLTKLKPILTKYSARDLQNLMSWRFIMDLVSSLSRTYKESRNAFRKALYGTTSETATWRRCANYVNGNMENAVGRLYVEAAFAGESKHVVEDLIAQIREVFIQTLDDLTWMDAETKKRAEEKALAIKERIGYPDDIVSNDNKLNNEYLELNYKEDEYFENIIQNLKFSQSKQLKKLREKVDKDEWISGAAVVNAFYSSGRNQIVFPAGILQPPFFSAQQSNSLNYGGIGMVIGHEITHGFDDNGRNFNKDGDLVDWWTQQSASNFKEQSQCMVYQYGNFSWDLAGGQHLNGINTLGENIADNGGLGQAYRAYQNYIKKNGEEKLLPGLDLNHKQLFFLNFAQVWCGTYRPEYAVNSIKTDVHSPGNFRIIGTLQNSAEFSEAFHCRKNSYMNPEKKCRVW

In the case of O=C(O)C[C@@H](Cc1ccc(-c2cccc(Cl)c2)cc1)NC(=O)CCC(=O)Oc1ccc2c(c1)CCC2 [Example 3-27], the IC50 is reported as 15 nM.
